Source: patent US6903130B1, “Pyrrolidineacetamide derivative alone or in combination for treatment of cns disorders” (UCB S.A., priority 1999, dated 2005)
Like-named read-outs stand apart in the source and are kept apart here.

Key:
[1] = tested on: sound-sensitive mice; assay: Rotarod test in sound-sensitive mice
[2] = tested on: sound-sensitive mice; assay: Audiogenic seizure testing, protection against clonic convulsions; type: in vivo, mouse; settings: for ED50: Mus musculus, ip, read-out: ED50, protection against audiogenic-induced clonic convulsions
Source text: The purpose of this study was to evaluate the effect of levetiracetam on the anticonvulsivant potency of valproate in sound sensitive mice, a genetic animal model with reflex seizures. In this model of generalized epilepsy, seizures can be evoked without electrical or chemical stimulation and seizure types, at least in part, are similar in their clinical phenomenology to seizures occurring in man (Löscher W. & Schmidt D., Epilepsy Res. (1988), 2, 145-181; Buchhalter J. R., Epilepsia (1993), 34, S31-S41).
The experimental design consisted of one group receiving vehicles, another group receiving levetiracetam alone at a dose of 5.5 mg/kg and the other groups receiving different doses of valproate alone or in combination with levetiracetam. Levetiracetam alone was also tested. […] Levetiracetam and sodium valproate were both dissolved in 0.9% saline solution, to give solutions of pH 6.4 and 6.2, respectively.
The proportion of mice protected against clonic convulsions was calculated and used as the end point for the anticonvulsant activity.
Methods used for calculation and statistical analysis are described hereafter: • A response to drug treatment was expressed as the proportion of animals protected against induced convulsions, or showing an impairment of the rotarod performance, at each individual dose. […] From these formulations, the dose of valproate, considered as expected value, that should be associated to a constant dose of levetiracetam in order to afford 50% of protection, may be calculated as: [formula] for the additive model [formula] for the independent model.
These calculated doses (Vm50 expected) may then be compared to the observed doses of valproate which, in combination with a constant dose of levetiracetam, induce an effect corresponding to 50% protection (Vm50 observed). […]

[3] = levetiracetam 5.5 mg/kg i.p. alone, inferred from dose-response relation

For `CC[C@@H](C(N)=O)N1CCCC1=O` [Levetiracetam, (S)-(−)α-ethyl-2-oxo-1-pyrrolidineacetamide], the “ED50 (TD50), impairment of rotarod performance” value ([1]; compound alone, i.p., sound-sensitive mice) was 360.7 mg/kg, the “animals showing an impairment of the rotarod performance” value [1, 3] was 4% and the ED50 [2] was 10 mg/kg. For the same molecule, the “animals protected against audiogenic-induced clonic convulsions” value [2, 3] was 20%.

For `CCCC(CCC)C(=O)[O-].[Na+]` [Valproate, sodium valproate], the “Impairment in the performance within the rotarod test” value ([1]; valproate 122 mg/kg + saline (treatment protecting 50% of the mice)) was 30% and the ED50 ([2]; compound alone, i.p., LOGIT-LOG DOSE regression) was 122 mg/kg.
